Data as given in ChEMBL document CHEMBL1201862, “PubChem BioAssay data set” (2004).
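Compound exposure: 48 hours, 5 concentrations, 96-well plates. Abbreviation: GI50, concentration required for 50% inhibition of growth.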 The source made the active and inactive calls. No stated cut-off is given here; in the data, active = GI50 up to about 1.1 µM and inactive = higher.

Key:
Test in all cases: NCI-60 cell line screen, 48 h
UACC-257 = test system: UACC-257
SK-MEL-28 = test system: SK-MEL-28
SNB-75 = test system: SNB-75
HOP-92 = test system: HOP-92
LOX IMVI = test system: LOX IMVI
OVCAR-4 = test system: OVCAR-4
MDA-MB-231 = test system: MDA-MB-231
M14 = test system: M14
K562 = test system: K562
ACHN = test system: ACHN
A498 = test system: A498
HOP-62 = test system: HOP-62
NCI-H23 = test system: NCI-H23
SNB-19 = test system: SNB-19
Hs-578T = test system: Hs-578T
MDA-MB-435 = test system: MDA-MB-435
Malme-3M = test system: Malme-3M
SK-OV-3 = test system: SK-OV-3
SN12C = test system: SN12C
SK-MEL-2 = test system: SK-MEL-2
DU-145 = test system: DU-145
T47D = test system: T47D
NCI-H460 = test system: NCI-H460
OVCAR-5 = test system: OVCAR-5
RXF 393 = test system: RXF 393
SW-620 = test system: SW-620
NCI/ADR-RES = test system: NCI/ADR-RES
EKVX = test system: EKVX
RPMI-8226 = test system: RPMI-8226
786-0 = test system: 786-0
MDA-N = test system: MDA-N
CAKI-1 = test system: CAKI-1
HT-29 = test system: HT-29
IGROV-1 = test system: IGROV-1
SF-268 = test system: SF-268
UO-31 = test system: UO-31
CCRF-CEM = test system: CCRF-CEM
NCI-H226 = test system: NCI-H226
A549 = test system: A549
SK-MEL-5 = test system: SK-MEL-5
HCC 2998 = test system: HCC 2998
BT-549 = test system: BT-549
KM12 = test system: KM12
MOLT-4 = test system: MOLT-4
PC-3 = test system: PC-3
HL-60 = test system: HL-60
U-251 = test system: U-251
TK-10 = test system: TK-10
OVCAR-3 = test system: OVCAR-3
MCF7 = test system: MCF7
COLO 205 = test system: COLO 205
OVCAR-8 = test system: OVCAR-8
HCT-116 = test system: HCT-116
SF-295 = test system: SF-295
HCT-15 = test system: HCT-15
UACC-62 = test system: UACC-62
SF-539 = test system: SF-539
NCI-H522 = test system: NCI-H522
SR = test system: SR

## CN(C)Cc1cc(C(=O)/C=C/c2c(F)cccc2Cl)cc(CN(C)C)c1O
UACC-257
  GI50: 11.4 µM (inactive)
SK-MEL-28
  GI50: 14.5 µM (inactive)
SNB-75
  GI50: 8.53 µM (inactive)
HOP-92
  GI50: 7.52 µM (inactive)
LOX IMVI
  GI50: 4.83 µM (inactive)
OVCAR-4
  GI50: 15.2 µM (inactive)
MDA-MB-231
  GI50: 13.1 µM (inactive)
M14
  GI50: 13.2 µM (inactive)
K562
  GI50: 4.09 µM (inactive)
ACHN
  GI50: 3.9 µM (inactive)
A498
  GI50: 6.5 µM (inactive)
HOP-62
  GI50: 12 µM (inactive)
NCI-H23
  GI50: 14.9 µM (inactive)
SNB-19
  GI50: 18.1 µM (inactive)
Hs-578T
  GI50: 17.5 µM (inactive)
MDA-MB-435
  GI50: 13.8 µM (inactive)
Malme-3M
  GI50: 11.8 µM (inactive)
SK-OV-3
  GI50: 14.1 µM (inactive)
SN12C
  GI50: 4.57 µM (inactive)
SK-MEL-2
  GI50: 15.6 µM (inactive)
DU-145
  GI50: 8.77 µM (inactive)
T47D
  GI50: 14.9 µM (inactive)
NCI-H460
  GI50: 2.37 µM (inactive)
OVCAR-5
  GI50: 18.4 µM (inactive)
RXF 393
  GI50: 2.69 µM (inactive)
SW-620
  GI50: 9.57 µM (inactive)
NCI/ADR-RES
  GI50: 17 µM (inactive)
EKVX
  GI50: 12.8 µM (inactive)
RPMI-8226
  GI50: 17.2 µM (inactive)
786-0
  GI50: 5.61 µM (inactive)
MDA-N
  GI50: 13 µM (inactive)
CAKI-1
  GI50: 11.5 µM (inactive)
HT-29
  GI50: 10.9 µM (inactive)
IGROV-1
  GI50: 5.47 µM (inactive)
SF-268
  GI50: 10.1 µM (inactive)
UO-31
  GI50: 3.7 µM (inactive)
CCRF-CEM
  GI50: 5.13 µM (inactive)
NCI-H226
  GI50: 13.5 µM (inactive)
A549
  GI50: 14.3 µM (inactive)
SK-MEL-5
  GI50: 15.3 µM (inactive)
HCC 2998
  GI50: 13.1 µM (inactive)
BT-549
  GI50: 8.2 µM (inactive)
KM12
  GI50: 12.8 µM (inactive)
MOLT-4
  GI50: 11.1 µM (inactive)
PC-3
  GI50: 13.7 µM (inactive)
HL-60
  GI50: 3.02 µM (inactive)
U-251
  GI50: 10.8 µM (inactive)
TK-10
  GI50: 3.04 µM (inactive)
OVCAR-3
  GI50: 9.18 µM (inactive)
MCF7
  GI50: 3.03 µM (inactive)
COLO 205
  GI50: 10.8 µM (inactive)
OVCAR-8
  GI50: 12.4 µM (inactive)
HCT-116
  GI50: 4.48 µM (inactive)
SF-295
  GI50: 11.6 µM (inactive)
HCT-15
  GI50: 4.34 µM
UACC-62
  GI50: 12.3 µM (inactive)

## O=C(Cc1ccccc1)N/N=C/c1ccccc1O
UACC-257
  GI50: 9.57 µM (inactive)
SK-MEL-28
  GI50: 40.4 µM (inactive)
SNB-75
  GI50: 12.5 µM (inactive)
HOP-92
  GI50: 9.14 µM (inactive)
LOX IMVI
  GI50: 9.42 µM (inactive)
OVCAR-4
  GI50: 15.7 µM (inactive)
MDA-MB-231
  GI50: > 100 µM (inactive)
M14
  GI50: 10.5 µM (inactive)
K562
  GI50: 13.9 µM (inactive)
ACHN
  GI50: 5.15 µM (inactive)
NCI-H23
  GI50: 17.8 µM (inactive)
SNB-19
  GI50: 33.1 µM (inactive)
SF-539
  GI50: 24.8 µM (inactive)
Hs-578T
  GI50: 36.1 µM (inactive)
MDA-MB-435
  GI50: 28.6 µM (inactive)
NCI-H522
  GI50: 13.2 µM (inactive)
Malme-3M
  GI50: 12.6 µM (inactive)
SR
  GI50: 5.52 µM (inactive)
SK-OV-3
  GI50: 15.9 µM (inactive)
SN12C
  GI50: 17.2 µM (inactive)
SK-MEL-2
  GI50: > 100 µM (inactive)
DU-145
  GI50: 23.3 µM (inactive)
T47D
  GI50: 4.29 µM (inactive)
NCI-H460
  GI50: 5.6 µM (inactive)
OVCAR-5
  GI50: 20.6 µM (inactive)
SW-620
  GI50: 19.3 µM (inactive)
NCI/ADR-RES
  GI50: 3.98 µM (inactive)
EKVX
  GI50: 5.28 µM (inactive)
RPMI-8226
  GI50: 15.9 µM (inactive)
786-0
  GI50: 6.14 µM (inactive)
MDA-N
  GI50: 21.8 µM (inactive)
CAKI-1
  GI50: 5.92 µM (inactive)
HT-29
  GI50: 4.84 µM (inactive)
IGROV-1
  GI50: 7.85 µM (inactive)
SF-268
  GI50: 8.57 µM (inactive)
UO-31
  GI50: 6.52 µM (inactive)
CCRF-CEM
  GI50: 4.94 µM (inactive)
NCI-H226
  GI50: 14.1 µM (inactive)
A549
  GI50: 26.1 µM (inactive)
SK-MEL-5
  GI50: 12 µM (inactive)
HCC 2998
  GI50: 11.2 µM (inactive)
BT-549
  GI50: 27.9 µM (inactive)
KM12
  GI50: 32.7 µM (inactive)
MOLT-4
  GI50: 4.55 µM (inactive)
PC-3
  GI50: 82.6 µM (inactive)
HL-60
  GI50: 6.3 µM (inactive)
U-251
  GI50: 19.5 µM (inactive)
TK-10
  GI50: 22.4 µM (inactive)
OVCAR-3
  GI50: 3.36 µM (inactive)
MCF7
  GI50: 3.94 µM (inactive)
COLO 205
  GI50: 4.09 µM (inactive)
OVCAR-8
  GI50: 8.93 µM (inactive)
HCT-116
  GI50: 7.55 µM (inactive)
SF-295
  GI50: 10.3 µM (inactive)
HCT-15
  GI50: 4.25 µM
UACC-62
  GI50: 8.95 µM (inactive)
